US20210069147A1, “PHARMACEUTICAL COMBINATION AND USES THEREOF” (BIONOMICS LIMITED, priority 2015, published 2021)

How the values were obtained:
[1] = tested on: tumor vasculature (Renca); assay: Vascular stain perfusion in murine orthotopic model of Renal Cancer (Renca); type: in vivo; conditions: perfusion of a vascular stain
Excerpt: In a murine orthotopic model of Renal Cancer (Renca) the present inventors have shown using perfusion of a vascular stain that tumor blood vessels arc obliterated after BNC105 treatment compared to normal tissue which remains unaffected.

[2] = tested on: IL-12 subunit p40; assay: Plasma biomarker analysis, Phase II mesothelioma trial (Multi-Analyte Profile); type: in vivo, human; conditions: patients, BNC105 16 mg/m2 monotherapy
Experimental: FIG. 4. Changes in levels of IL-12 p40 and II: 10 following administration with BNC105. Phase II Mesothelioma trial BNC105 (16 mg/m2) number of patients=19. Blood draws were pre-specified and optional. Patients receiving BNC105 alone received blood draws prior to BNC105 administration and 3 hours following administration. Plasma samples were used to determine exploratory analytes using Multi-Analyte Profile (MAP) technology (Myriad RBM). Graph showing % change from baseline. Percent change was calculated as analyse plasma concentration (post-baseline)/baseline*100. Mean±SEM shown on graph.
The balance between pro-inflammatory and anti-inflammatory signals provided by different immune cell populations is crucial for normal physiology and the suppression of cancer development. By altering this homeostasis an opportunity is provided for the immune system to alter the way it responds. Biomarker analysis on patient samples was conducted from a Phase II BNC105 monotherapy mesothelioma trial. […] The immune-modulatory cytokine IL-12 subunit p40, a key member of the IL-12 cytokine family, has emerged as a potent inducer of antitumor immunity. IL-12 subunit p40 is secreted by activated macrophages and serves as an essential inducer of Th1 cells development.

[3] = tested on: MC38 murine colon tumor; assay: Efficacy in syngeneic MC38 murine colon tumor model; type: in vivo, mouse (C57/BL6); conditions: Day 17; C57/BL6 mice with s.c. MC38 tumors; BNC105P 10 mg/kg i.v. Day 1, 8, 15; anti-PD1 (Clone RMP1-14) 3.5 mg/kg i.p. Day 1, 4, 8, 12, 16
Experimental: The present inventors conducted a study to determine the efficacy of BNC105 in combination with the immunotherapeutic anti-PD1 antibody in the syngeneic MC38 murine colon tumor model. BNC105P was administered at 10 mg/kg i.v., on Day 1, 8 and 15, anti-PD1 antibody (Clone RMP1-14) was administered at 3.5 mg/kg i.p. on Day 1, 4, 8, 12 and 16. C57/BL6 mice were inoculated subcutaneously with MC38 cells. When tumors reached a volume of approximately 100-150 mm3 animals were randomised into groups of 10 mice per group.
1. Saline+PBS control 2. Saline+IgG2a isotypc control antibody 3. BNC105P+IgG2a isotype control antibody 4. Saline+anti-PD1 antibody 5. BNC105P+anti-PD1 antibody
The in-life pan of this study was completed on Day 18 of the treatment period due to tumor size in the control groups reaching the ethical limit. Tumors and blood were collected for FACS analysis and also tumors were collected for histology. FACS analysis and histology is currently under way and is aimed at identifying changes of immune T-cell populations following treatment.

[4] = tested on: CT26 murine colon tumor; assay: Efficacy in syngeneic CT26 murine colon tumor model; type: in vivo, mouse (Balb/c); conditions: Day 11; Balb/c mice with s.c. CT26 tumors; BNC105 10 mg/kg Days 1 and 8; anti-CTLA4 (Clone 9D9) 10 mg/kg i.p. Days 2, 5, 9
Experimental: The present inventors conducted a separate study to determine the efficacy of BNC105 in combination with the immune-oncology therapeutic antibody anti-CTLA4 in the syngeneic CT26 murine colon tumor model. BNC105 (10 mg/kg) was administered on Days 1 and 8, the anti-CTLA4 antibody (Clone 9D9) was administered at 10 mg/kg i.p. on Days 2, 5, and 9. Balb/c mice were inoculated subcutaneously with C1′26 cells. When tumors reached an average volume of approximately 135 mm3 animals were randomised into 5 groups of 10 mice per group.
1. Saline+PBS control 2. Saline+IgG2b isotype control, antibody 3. BNC105P+IgG2b isotype control antibody 4. Saline+anti-CTLA4 antibody 5. BNC105P+anti-CTLA4 antibody
The in-life part of this study was completed on Day 12 of the treatment period due to tumor sizes in the control groups reaching ethical limits. Tumors were collected for both FAGS analysis and for histology. FAGS analysis and histology arc currently in progress and aim to identify changes of immune T-cell populations following treatment.

[5] = tested on: CD3+/CD8+ cells; assay: Tumoral CD3+/CD8+ cells; conditions: in vivo
Excerpt: (§1) BNC105 primes the immunogenic potential of a tumor with increased tumoral IFNγ content compared to control treated animals (FIG. 3). IFNγ is secreted from CD4+ Th1, CD8+ and Th0 cells and activated NK cells.

[6] = tested on: IFNγ; assay: Tumoral levels of IFNγ; type: in vivo; conditions: 16 mg/kg BNC105 versus saline (FIG. 3)
Experimental: FIG. 3. Tumoral levels of IFNγ in animals administered with saline or 16 mg/kg BNC105.
as §1

[7] = tested on: tumor infiltrating macrophages (CD11b+); assay: Number of tumor infiltrating macrophages; type: in vivo; conditions: after treatment, monotherapy and combination (FIG. 5)
Excerpt: FIG. 5. Reduction in the number of tumor infiltrating macrophages (CD11b+) after treatment with BNC105 (monotherapy and combination).
This reduction would dramatically change the immune environment potentially releasing the immune dampening effect of macrophage subsets.

| normal tissue vasculature after treatment [1] | SMILES | tumor blood vessels after treatment [1] | plasma IL-12 subunit p40 post administration ([2]; 3 hours following administration versus baseline) | plasma IL-12 subunit p40 at Day 8 post dosing ([2]; Day 8) | tumor growth inhibition (TGI) [3] | tumor growth inhibition [4] | change in tumoral CD3+/CD8+ cells [5] | tumoral IFNγ content compared to control treated animals [6] | number of tumor infiltrating macrophages (CD11b+) [7] |
| --- | --- | --- | --- | --- | --- | --- | --- | --- | --- |
| unaffected | COc1cc(C(=O)c2c(C)oc3c(O)c(OC)ccc23)cc(OC)c1OC [BNC105, 2-methyl-7-hydroxy-3-(3,4,5-trimethoxybenzoyl)-6-methoxybenzofuran] | obliterated | significantly increases | remains elevated | 40% | 27% | No change | increased | significant reduction |
|  | COc1cc(C(=O)c2c(C)oc3c(OP(=O)([O-])[O-])c(OC)ccc23)cc(OC)c1OC.[Na+].[Na+] [BNC105P, di sodium [6-methoxy-2-methyl-3-(3,4,5-trimethoxybenzoyl)-1-benzofuran-7-yl] phosphate] |  |  |  | 40% | 27% |  |  |  |
